Entries after “also recorded” stand apart in the source; their conditions may differ. {P} = phosphate
Assays:
SOD2 protein = assay: Western blot analysis of antioxidant enzymes: SOD2 protein; assay type: cell-based, human
Protocol: Cell lysates were harvested at various intervals after T-oligo treatment in harvest buffer containing 0.25 M Tris HCl (pH 7.5), 0.375 M NaCl, 2.5% sodium deoxycholate, 1% Triton X-100, 25 mM MgCl2, 0.1 mg/ml aprotinin (Sigma, St. Louis, Mo.) and 1 mM phenylmethyl sulfonyl flouride (PMSF) (Sigma). Samples were sheared through a fine needle syringe, sonicated, centrifuged and the supernatant was isolated. Total cellular protein concentrations were determined spectrophotometrically with the Bio-Rad protein assay (Bio-Rad Laboratories, Inc, Hercules, Calif.). Equal amounts of total protein from each sample (35-65 μg) were separated by 10-15% polyacrylamide gel electrophoresis, and transferred to nitrocellulose membranes. After transfer, gels were stained with Coomassie Blue (Sigma) to ascertain evenness of loading.
Membranes were reacted with antibodies diluted in Tris-based buffer with nonfat milk powder as a blocking agent. […] Antibody binding was detected with electrochemical luminescence (ECL kit, NEN Life Science Products, Inc.) and exposure to XAR film (Eastman Kodak Co.).
Northern and western films as well as stained membranes and pictures of ethidium bromide-stained gels were digitally scanned and analyzed by densitometry. […]

human dermal fibroblasts = assay: Senescence-associated β-galactosidase (SA-β-gal) assay; assay type: cell-based; conditions: for SA-β-gal positive cells, result in words: up to 72 hours of treatment
Text: Subconfluent senescent fibroblasts were found by Dimri et al. to stain blue in an assay that measures β-galactosidase activity at pH 6.0.^240 As per their protocol, cells were fixed with a 2% formaldehyde and 0.2% glutaraldehyde solution, washed, and stained overnight in X-gal solution. The next day, 3-4 photographs were taken of representative fields in each plate under a 10× microscope objective using coded labels. The number of blue (senescent) cells in each photograph could then be determined in a blinded fashion. The SA-β-gal assay was performed in parallel with the DCF time-course experiments, using the same mixture of donor cells and seeding densities.

[1] = tested on: human newborn fibroblasts; assay: Propidium iodide (PI) staining of nonviable cells; assay type: cell-based; conditions: doses 25-250% of standard dose (40 μM TO, 100 μM pTT); positive control 1 mM H2O2
Protocol: Propidium iodide (PI, Sigma) was used to stain nonviable cells for some experiments. PI stock solution (1 mg,/ml) was added to samples immediately after harvesting to achieve a final concentration of 2 μg/ml.
To better characterize the dose effects of different pTT and 11-base T-oligo doses, a dose response study was conducted. For each T-oligo the doses were 25-250% of the standard dose used (40 μM for TO and 100 μM for pTT). […] Panel C is a compilation of the maximum DCF peak shifts measured with each treatment: diluent, 250 μM pTT, 100 μM TO and 1 mM as the positive control. […] There is a significant difference in DCF fluorescence stimulated by the two treatments when the same doses were used (25, 40 and 100 μM) (2-way ANOVA, p=0.0038).

[2] = tested on: intracellular ROS in normal newborn human dermal fibroblasts; assay: Dichlorofluorescein diacetate (DCF) assay of intracellular ROS, FACScan; assay type: cell-based; conditions: for DCF fluorescence (intracellular ROS) compared to diluent: 100 μM pTT / pCC, 40 μM TO / TOC1 / TOC2
Protocol: Normal newborn human dermal fibroblasts were cultured from foreskin specimens into DMEM supplemented with 10% CS as described above. Due to the large number of cells needed for time course experiments, and to minimize donor variability, in dichlorofluorescein diacetate FACS experiments cells from three different donors were combined.
Purified lyophilized oligonucleotides were obtained and prepared for cell treatment as described above. All treatments involved a single stimulation with T-oligo, after which cells were harvested at various times without medium changes or addition of more T-oligo. Treatment doses were 100 μM pTT and 40 μM TO except in dose-response experiments; these concentrations were determined in previous experiments to be optimal for measuring DNA damage responses using these T-oligos.^142,150,228
Complementary and scrambled oligonucleotides were chosen for each T-oligo. pAA and pCC were used as controls for pTT, and the complementary 11-base pCTAACCCTAAC (TOC1, SEQ ID NO: 22) and a scrambled sequence pGATCGATCGAT (TOC2, SEQ ID NO: 23) were used as controls for the T-oligo TO.
H2DCFDA stock solution (1 mg/ml) was thawed and diluted in Hanks' Balanced Salt Solution, 1× liquid without phenol red (GIBCO Invitrogen, Carlsbad, Calif.), to a working concentration of 100 μM immediately before use. H2DCFDA is converted by intracellular esterases to dichlorofiuorescein (DCF). When oxidized by intracellular ROS, it will fluoresce at 530 nm when excited by 480 nm light. […] All work involving DCF was conducted in minimal room light. Peaks on FACScan plots that shift to the right indicate greater fluorescence and increased ROS levels. For NADPH oxidase inhibitor studies using DPI,^237,239 the DPI stock solution was added directly to DCF treatment solution to achieve a final DPI treatment concentration of 50 μM.
Hydrogen peroxide positive controls were used to rule out saturation of the DCF probe in the T-oligo dose response experiments. Fibroblasts were exposed to 1 mM, 5 mM and 10 mM H2O2 solutions in PBS for 15 minutes following DCF incubation for 30 minutes, harvested and analyzed as described above.
The horseradish peroxidase assay data was analyzed by one-way ANOVA. DCF assay FACScan results were analyzed using Cellquest software (Becton-Dickinson, Calif.). All peak positions on x-axis of the fluorescence histogram plot were determined visually (using the software) and recorded as a number. Peak position values were then compared using one-way ANOVA.

| Substance | SOD2 protein level (SOD2 protein; 40 μM, within several hours, up to 168 hours) | SA-β-gal positive cells, result in words (human dermal fibroblasts) | PI fluorescence (toxicity / nonviable cells) [1] | maximum amount of DCF fluorescence, TO vs pTT ([2]; 40 μM TO compared to 100 μM pTT) | DCF fluorescence (intracellular ROS) compared to diluent [2] | time measurable ROS stimulation starts ([2]; FIG. 14 donor cells, 100 μM pTT, 40 μM TO) | time of measurable ROS stimulation ([2]; FIG. 16 representative time course, donor variability) | ROS production (DCF fluorescence) relative to pTT at the same dose ([2]; within 72 hours, 25, 40 and 100 μM doses) | SOD2 protein maximal relative induction compared to diluent (SOD2 protein; 100 μM pTT, at 24 hours, three donors, mean±SEM) | cells staining positive in the SA-β-gal assay (human dermal fibroblasts; 40 μM TO or 100 μM pTT, 24-72 hours of treatment) |
| --- | --- | --- | --- | --- | --- | --- | --- | --- | --- | --- |
| pGTTAGGGTTAG (5' {P}, sugars by position and backbone not given here) [TO] | induced | did not display S.A. β-gal activity | less than that induced by the positive control; also recorded: comparable to diluent treatment | greater than ROS stimulated by pTT-treated cells | statistically significant increase in DCF fluorescence | 36 h | ≤ 36 h | up to 1.5 times |  |  |
| 5′-phosphorylated thymidine dinucleotides [pTT] |  | did not result in a significant number of SA-β-gal cells; also recorded: did not display S.A. β-gal activity | less than that induced by the positive control; also recorded: comparable to diluent treatment |  | statistically significant increase in DCF fluorescence |  |  |  | 31% (±20%) | Less than 10% |

Reference: patent publication US20100286247A1, “Methods of Protection from Oxidative Stress” (Trustees of Boston University, priority 2005, published 2010)
